Columns and labels:
[1] = system: platelets and neutrophils; experiment: Pilot study: thrombocytopenia and neutropenia in pancreatic cancer patients receiving chemotherapy; assay type: in vivo, human; details: 16 patients
Protocol: PLAG is administered to sixteen pancreatic cancer patients after chemotherapy. The subjects of this study are unoperable pancreatic cancer patients with ECOG (Eastern Cooperative Oncology Group) performance status of “0” or “1”, i.e. patients in good physical condition without much pain, able to enjoy almost normal lifestyle and thus, eligible for anticancer treatment for at least 2 months. The pancreatic cancer patients are “locally advanced” patients having tumor metastasis to the major vessels around pancreas or “Distant metastasis” patients with distant metastasis to liver, lung, bone, etc. ECOG performance status “0” refers to a patient who is asymptomatic, fully active, able to carry on all predisease activities without restriction with no pain and no problem for normal lifestyle, while “1” refers to a patient who is symptomatic but completely ambulatory with mile pain and a little problem for normal life. Anticancer (Gemcitabine and Erlotinib combo treatment) Regimen is as follows: 1,000 mg of Gemcitabine is injected once a week for three weeks (Day 1, Day 8, Day 15), and is not injected in the next one week (Day 22). Therefore, 1 cycle of anticancer treatment requires 1 month. 100 mg of Erlotinib (Tarceva) is administered once per day everyday orally. 1,000 mg of PLAG is also administered once per day orally, starting from 3 days before anticancer treatment until the last chemotherapy treatment. The PLAG treatment group and control group both completed two cycles of anticancer treatment. There is no difference among the control and PALG treatment groups in the amount or schedule of anticancer treatment.

[2] = system: C3; experiment: C3 expression in HepG2 cell line, RT-PCR of mRNA; assay type: cell-based, human; details: HepG2 cells, 2 hours
Protocol: A liver cell line, HepG2 (American Type Culture Collection, ATCC, Rockville, Md.), is incubated and maintained at 37° C., 5% CO2 humid atmosphere in DMEM medium. When HepG2 cells, which are known to produce complement in culture, are treated with PLAG, the activity of complement is reduced effectively, as confirmed by RT-PCR of mRNA. In the RT-PCR, 5×10^5 number of HepG2 cells/ml are distributed into 12 well plates and induced C3 for 12 hours with 10% FCS. Then PLAG is added and further cultured for 2 hours. Cells are harvested and mRNA is isolated and RT-PCR is carried out with specific primer of C3; GAPDH is used as an internal control.

[3] = system: C3; experiment: C3 inhibition by PLAG in HMC-1, ELISA; assay type: cell-based, human; details: HMC-1 cells, PLAG 1, 10 and 100 μg/mL for 2 hours, activated 72 hours
Protocol: In a separate experiment, human mast cells (HMC-1, 1×10^5 cell/ml) are treated with PLAG of various concentrations (1, 10 and 100 μg/mL) for 2 hours. The cells are activated for 72 hours with 10% FBS (Fetal bovine serum) containing IMDM. The decrease of C3 is confirmed by ELISA analysis of the expressed protein.

[4] = system: PKCθ/p38 MAPK/ERK pathway; experiment: Dephosphorylation of p38 MAPK and ERK1/2 in PLAG-treated RBL-2H3 cells, western blot; assay type: cell-based; details: PLAG pre-incubated RBL-2H3 cells, IgE-antigen complex stimulation
Protocol: Dephosphorylation of p38 MAPK and ERK1/2 in PLAG-treated RBL-2H3 cells is determined by western blot analysis using anti-phospho-p38 and anti-phospho-ERK1/2 respectively. To activate the p38 and ERK1/2 in RBL-2H3 cells, the cells are sensitized with 50 ng/mL of anti-DNP-IgE overnight. After washing with PBS three times, 20 ng/ml of DNP-HSA is added. Each cell lysate for western blot is prepared in the PLAG-treated RBL-2H3 cells in a dose-dependent manner and incubated for the same time (15 min). β-actin is used as internal controls. ERK1/2 and p38 phosphorylation start immediately after IgE-antigen complex stimulation and remain sufficiently activated for 5 min.

[5] = Gemcitabine and Erlotinib, PLAG 1,000 mg once per day orally, two cycles

With `CCCCC/C=C\C/C=C\CCCCCCCC(=O)OC(COC(C)=O)COC(=O)CCCCCCCCCCCCCCC` (racemic) [PLAG, 1-palmitoyl-2-linoleoyl-3-acetylglycerol] the “patients whose platelet number dropped to less than 25,000/μl” value [1, 5] was “no patient”, the “patients with platelet number decrease to less than 50,000/μl” value [1, 5] was “no patient” and the “patients with >70% decrease in platelet count” value ([1]; PLAG treatment group) was “none”. The “patients with neutrophil decrease to less than 500/μl” value ([1]; PLAG treatment group) was “none”, the “patients with neutrophil number decrease to less than 75%” value ([1]; PLAG treatment group) was “none and not one patient” and the “inhibition of C3 expression (RT-PCR)” value ([2]; PLAG 1 microgram/ml) was “somewhat”. For the same compound, the “inhibition of C3 expression (RT-PCR)” value ([2]; PLAG 10 microgram/ml) was “entirely”, the “decrease of C3 (expressed protein, ELISA)” value [3] was “proportional to the concentration of PLAG” and the “ERK1/2 and p38 phosphorylation” value [4] was “down-regulated”.

Source: patent US11491132B2, “Methods for treating thrombocytopenia” (Enzychem Lifesciences Corporation, priority 2014, dated 2022)
